Test system: MCF-7
Assay: Cell cycle analysis by flow cytometry (propidium iodide)
Type: cell-based, human
Details: MCF7 and U2OS with siRNA knockdown; data not shown

For `O=c1[nH]cc(F)c(=O)[nH]1` [5-fluorouracil], the “cell cycle arrest response (control)” value was “potent p53-dependent cell cycle arrest response”.

Source: publication PMC4303209, “A novel phosphatidylinositol 3-kinase (PI3K) inhibitor directs a potent FOXO-dependent, p53-independent cell cycle arrest phenotype characterized by the differential induction of a subset of FOXO-regulated genes” (Breast Cancer Research : BCR, 2014)
